Patent US20140303144A1, “COMPOUNDS AND METHODS OF TREATING HYPERTENSION” (Medivation Technologies, Inc., priority 2011, published 2014)

What was measured:
[1] = target: T1, human recombinant adrenergic α1D receptor (Homo sapiens, UniProt P25100); assay: Adrenergic α1D radioligand binding assay ([3H]Prazosin); details: 0.1 μM compound; read-out: Percentage inhibition of ligand binding, Adrenergic α1D
T1 construct: expressed in transfected cells; host or cells: HEK-293 cells
T1 sequence (P25100 1-572): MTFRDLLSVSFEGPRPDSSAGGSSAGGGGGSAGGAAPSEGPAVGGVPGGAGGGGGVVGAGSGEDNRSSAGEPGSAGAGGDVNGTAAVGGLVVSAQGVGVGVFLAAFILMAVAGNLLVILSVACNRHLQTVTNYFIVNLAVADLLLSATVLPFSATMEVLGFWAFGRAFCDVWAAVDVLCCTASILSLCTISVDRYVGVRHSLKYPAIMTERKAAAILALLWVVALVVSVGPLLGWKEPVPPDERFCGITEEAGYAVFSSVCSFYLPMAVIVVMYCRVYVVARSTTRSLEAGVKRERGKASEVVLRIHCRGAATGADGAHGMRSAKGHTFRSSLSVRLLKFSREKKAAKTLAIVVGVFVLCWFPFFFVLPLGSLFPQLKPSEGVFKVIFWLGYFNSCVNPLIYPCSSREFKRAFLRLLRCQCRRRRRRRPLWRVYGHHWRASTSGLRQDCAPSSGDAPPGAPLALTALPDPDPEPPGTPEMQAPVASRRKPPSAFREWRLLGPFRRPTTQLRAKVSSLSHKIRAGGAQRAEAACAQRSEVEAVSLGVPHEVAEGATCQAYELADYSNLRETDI
Description: To evaluate in radioligand binding assays the activity of compounds of the invention, human recombinant adrenergic α1D receptor expressed in human embryonic kidney (HEK-293) cells (Kenny, B. et al, Br. J. Pharmacol. 115(6):981, 1995) in a 50 mM Tris-HCl buffer, pH 7.4, was used. Compounds were incubated with 0.6 nM [3H]Prazosin for 60 min at 25° C. Non-specific binding was estimated in the presence of 10 μM phentolamine. Receptor proteins were filtered and washed, the filters were then counted to determine [3H]Prazosin specifically bound. Compounds were screened at 1 μM or lower, using 1% DMSO as vehicle. Biochemical assay results are presented as the percent inhibition of specific binding in Tables B1A-B1D.

[2] = target: T2, human recombinant adrenergic α2B receptor (Homo sapiens, UniProt P18089); assay: Adrenergic α2B radioligand binding assay ([3H]Rauwolscine); details: 0.1 μM compound; read-out: Percentage inhibition of ligand binding, Adrenergic α2B
T2 construct: expressed in transfected cells; host or cells: CHO-K1 cells
T2 sequence (P18089 1-450): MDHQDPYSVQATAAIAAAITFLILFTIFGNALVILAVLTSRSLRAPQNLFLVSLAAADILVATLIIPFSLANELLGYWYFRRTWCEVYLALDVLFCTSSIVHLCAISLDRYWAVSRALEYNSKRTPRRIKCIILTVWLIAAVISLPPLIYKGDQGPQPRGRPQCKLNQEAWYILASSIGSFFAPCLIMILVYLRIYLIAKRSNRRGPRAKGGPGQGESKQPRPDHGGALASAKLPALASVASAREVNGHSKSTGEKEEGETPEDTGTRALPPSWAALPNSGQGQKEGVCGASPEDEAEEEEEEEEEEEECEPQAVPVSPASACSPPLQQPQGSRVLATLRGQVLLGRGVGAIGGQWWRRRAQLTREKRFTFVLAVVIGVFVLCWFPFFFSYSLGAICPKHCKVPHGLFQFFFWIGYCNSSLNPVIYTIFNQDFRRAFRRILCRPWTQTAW
Description: To evaluate in radioligand binding assays the activity of compounds of the invention, human recombinant adrenergic α2B receptor expressed in Chinese hamster ovary (CHO) K1 cells (Uhlen, S. et al, Eur. J. Pharmacol. 343(1):93, 1998) in a modified Tris-HCl buffer (50 mM Tris-HCl, pH 7.4, 12.5 mM MgCl2, 1 mM EDTA, 0.2% BSA) was used. Compounds of the invention were incubated with 2.5 nM [3H]Rauwolscine for 60 min at 25° C. Non-specific binding was estimated in the presence of 10 μM Prazosin. Receptor proteins were filtered and washed, the filters were then counted to determine [3H]Rauwolscine specifically bound. Compounds were screened at 1 μM or lower, using 1% DMSO as vehicle. Compounds of the invention were tested in this biochemical assay and percent inhibition of specific binding was determined. Biochemical assay results are presented as the percent inhibition of specific binding in Tables B1A-B1D.

[3] = target: T3, human recombinant adrenergic α2A receptor (Homo sapiens, UniProt P08913); assay: Adrenergic α2A radioligand binding assay ([3H]MK-912); details: 0.1 μM compound; read-out: Percentage inhibition of ligand binding, Adrenergic α2A
T3 construct: expressed in transfected cells; host or cells: insect Sf9 cells
T3 sequence (P08913 1-465): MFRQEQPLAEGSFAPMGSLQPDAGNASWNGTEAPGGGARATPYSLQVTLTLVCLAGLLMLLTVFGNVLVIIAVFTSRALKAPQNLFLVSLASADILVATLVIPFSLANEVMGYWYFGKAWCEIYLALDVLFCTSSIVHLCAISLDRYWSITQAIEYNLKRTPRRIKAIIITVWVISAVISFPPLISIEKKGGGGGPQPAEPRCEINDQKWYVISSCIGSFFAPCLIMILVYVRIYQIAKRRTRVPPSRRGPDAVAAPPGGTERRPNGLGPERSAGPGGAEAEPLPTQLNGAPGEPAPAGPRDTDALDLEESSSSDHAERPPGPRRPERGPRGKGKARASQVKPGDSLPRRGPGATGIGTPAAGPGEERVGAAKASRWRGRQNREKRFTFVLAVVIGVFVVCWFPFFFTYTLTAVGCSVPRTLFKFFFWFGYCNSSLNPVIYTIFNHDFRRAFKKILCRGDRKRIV
Description: To evaluate in radioligand binding assays the activity of compounds of the invention, human recombinant adrenergic α2A receptor expressed in insect Sf9 cells (Uhlen, S. et al, J. Pharmacol. Exp. Ther. 271:1558, 1994) in a modified Tris-HCl buffer (50 mM Tris-HCl, pH 7.4, 12.5 mM MgCl2, 2 mM EDTA) was used. Compounds of invention were incubated with 1 nM [^3H]MK-912 for 60 min at 25° C. MK912 was (2S-trans)-1,3,4,5′,6,6′,7,12b-octahydro-1′,3′-dimethyl-spiro[2H-benzofuro[2,3-a]quinolizine-2,4′(1′H)-pyrimidin]-2′(3′H)-one hydrochloride Non-specific binding was estimated in the presence of 10 μM WB-4101 (2-(2,6-Dimethoxyphenoxyethyl)aminomethyl-1,4-benzodioxane hydrochloride). Receptor proteins were filtered and washed, the filters were then counted to determine [^3H]MK-912 specifically bound. Compounds were screened at 1 μM or lower, using 1% DMSO as vehicle. Compounds of the invention were tested in this biochemical assay and percent inhibition of specific binding was determined. Biochemical assay results are presented as the percent inhibition of specific binding in Tables B1A-B1D.

SMILES | inhibition at 0.1 µM [1] | inhibition at 0.1 µM [2] | inhibition at 0.1 µM [3]
C/C(=C\c1cc(C)cc2c3c(n(C)c12)CCN(C)C3)c1ccncc1 [A11] | -1% | 14% | 4%
C/C(=C\c1cc(C)cc2c3c(n(C)c12)CCN(C)C3)c1ccc(C)nc1 [A15] | 5% | 21% | 20%
Cc1cc(C#Cc2cccs2)c2[nH]c3c(c2c1)CN(C)CC3 [A8] | 3% | -1% | 20%
Cc1cc(CCc2ccc(C)nc2)c2c(c1)c1c(n2C)CCN(C)C1 [A13] | 8% | 5% | -12%
Cc1cc(-c2ccncc2)c2c(c1)c1c(n2C)CCN(C)C1 [A9] | -1% | -7% | 0%
C#Cc1cc(C)cc2c3c(n(C)c12)CCN(C)C3 [A10] | 26% | 8% | 23%
Cc1cc(C#Cc2ccc(C)nc2)c2c(c1)c1c(n2C)CCN(C)C1 [A12] | 38% | 6% | -4%
Cc1cc(-c2ccc(F)cc2)c2c(c1)c1c(n2C)CCN(C)C1 [A7] | 4% | -9% | 10%
Cc1cc(/C=C/c2ccc(C)nc2)c2c(c1)c1c(n2C)CCN(C)C1 [A14] | -9% | -3% | 12%

Next, values leading:

inhibition at 0.1 µM [1] | inhibition at 0.1 µM [2] | inhibition at 0.1 µM [3] | SMILES
-5% | 30% | 8% | Cc1ccc2c(c1)c1c3n2CC(c2ccncc2)=CCC3(C)CN(C)C1 (stereo not drawn) [D11]
-3% | -7% | 5% | Cc1ccc2c(c1)c1c3n2C(c2ccccc2)CCC3(C)CN(C)C1 (stereo not drawn) [D12]
15% | -8% | -1% | Cc1cc2c3c(c1)c1c(n3CC(C)(c3ccc(C)nc3)OC(C)C2)CCN(C)C1 (stereo not drawn) [B160]
-2% | 17% | 31% | Cc1cc(C#Cc2nccs2)c2[nH]c3c(c2c1)CN(C)CC3 [A16]
-6% | -6% | -1% | Cc1ccc2c(c1)c1c3n2C(c2ccccc2)=CCC3(C)CN(C)C1 (stereo not drawn) [D10]
15% | 4% | 5% | Cc1cc2c3c(c1)c1c(n3C[C@](C)(c3ccncc3)O[C@H]2C)CCN(C)C1 [B163]
34% | 38% | 6% | Cc1ccc(C#Cc2cc(Cl)cc3c4c(n(C)c23)CCN(C)C4)cn1 [A18]
0% | 43% | 40% | Cc1cc2c3c(c1)c1c(n3CC(C)(c3ccncc3)OC(C)C2)CCN(C)C1 (stereo not drawn) [B165]
-2% | 27% | 14% | Cc1cc2c3c(c1)c1c(n3C[C@@](C)(c3ccncc3)O[C@H]2C)CCN(C)C1 [B162]
28% | 72% | 75% | Cc1cc2c3c(c1)c1c(n3C(c3ccccc3)C2)CCN(C)C1 (stereo not drawn) [B12]
-5% | 21% | 14% | Cc1cc(C#Cc2ccncc2)c2c(c1)c1c(n2C)CCN(C)C1 [A17]
